Source: patent publication US5338726A, “Endothelin converting enzyme inhibitors” (Abbott Laboratories, priority 1992, dated 1994)

Biological target: solubilized endothelin converting enzyme (P3 from rat lung)
Test: ECE Inhibitor Screening Assay
Type: biochemical
Settings: Big ET substrate, 30 minutes at 37° C., HPLC of ET-1 and Big ET, read-out: Inhibition of Endothelin Converting Enzyme IC50
Protocol: The above mixture without the test compound was used as the control.
Following a 15 minute preincubation at 37° C., benzyl succinate (100 μM), NaOAc, and Big ET (3 μg) were added. The mixture was incubated for 30 minutes at 37° C., followed by addition of pepstatin (40 μM) and 10% TFA to stop the reaction. The mixture was vortexed, centrifuged and the supernatant retained for HPLC determination of Big ET, ET-1 and CTF. […] Percent inhibiton calculations were made with reference to controls based on quantitation of the ET-1 and Big ET peaks at the end of the incubation period.

IC50 | SMILES
0.057 µM | CCC(C)C(NC(=O)OC(C)(C)C)C(=O)NC(C(=O)NC(CC(C)C)C(O)CC(=O)NCCCCO)C(C)CC (stereo not drawn) [Example 6, N-Boc-Isoleucyl-Isoleucyl-Statyl (4-Hydroxybutyl)carboxamide]
0.068 µM | CCC(C)C(NC(=O)OC(C)(C)C)C(=O)NC(C(=O)NC(CC(C)C)C(O)CC(=O)NCCCCCO)C(C)CC (stereo not drawn) [Example 7, N-Boc-Isoleucyl-Isoleucyl-Statyl (5-Hydroxyamyl)carboxamide]
0.039 µM | CCC(C)C(NC(=O)OC(C)(C)C)C(=O)NC(C(=O)NC(CC(C)C)C(O)CC(=O)NCCCCCCO)C(C)CC (stereo not drawn) [Example 8, N-Boc-Isoleucyl-Isoleucyl-Statyl (6-Hydroxyhexyl)carboxamide]
0.019 µM | CCOC(=O)CC(O)C(CC(C)C)NC(=O)C(NC(=O)C(CC1CCCCC1)NC(=O)OC(C)(C)C)C(C)CC (stereo not drawn) [Example 12, N-Boc-Cyclohexylalanyl-Isoleucyl-Statyl Ethyl ester]
0.017 µM | CCOC(=O)CCNC(=O)CC(O)C(CC(C)C)NC(=O)C(NC(=O)C(NC(=O)OC(C)(C)C)C(C)CC)C(C)CC (stereo not drawn) [Example 13, N-Boc-Isoleucyl-Isoleucyl-Statyl-β-Alanyl Ethyl ester]
0.008 µM | CCC(C)C(NC(=O)OC(C)(C)C)C(=O)NC(C(=O)NC(CC(C)C)C(O)CC(=O)NCC(C)C)C(C)CC (stereo not drawn) [Example 14, N-Boc-Isoleucyl-Isoleucyl-Statyl Isobutylcarboxamide]
0.047 µM | CCC(C)C(NC(=O)C(CC1CCCCC1)NC(=O)OC(C)(C)C)C(=O)NC(CC(C)C)C(O)CC(=O)O (stereo not drawn) [Example 15, N-Boc-Cyclohexylalanyl-Isoleucyl-Statyl-OH]
0.03 µM | CCC(C)C(NC(=O)OC(C)(C)C)C(=O)NC(C(=O)NC(CC(C)C)C(O)CC(=O)NCCC(=O)O)C(C)CC (stereo not drawn) [Example 16, N-Boc-Isoleucyl-Isoleucyl-Statyl-β-Alanyl-OH]
0.024 µM | CCC(C)C(NC(=O)C(CC1CCCCC1)NC(=O)OC(C)(C)C)C(=O)N[C@@H](Cc1c[nH]c2ccccc12)C(O)CC(=O)NC(C(=O)O)C(C)C (stereo partly drawn) [Example 23, N-[(4S)-4-(N-Boc-Cyclohexylalanyl-Isoleucyl-Amino)-5-(3-indolyl)-3-hydroxypentanoyl]-Valyl-OH]
0.007 µM | CC[C@H](C)[C@H](NC(=O)OC(C)(C)C)C(=O)N[C@H](C(=O)N[C@@H](CC1CCCCC1)[C@@H](O)[C@@H](O)CC(C)C)[C@@H](C)CC [Example 24, (2S,3R,4S)-2-(N-Boc-Isoleucyl-Isoleucyl-Amino)-1-cyclohexyl-3,4-dihydroxy-6-methylheptane]
0.017 µM | CC[C@H](C)[C@H](NC(=O)CCC(=O)O)C(=O)N[C@H](C(=O)N[C@@H](CC1CCCCC1)[C@@H](O)[C@@H](O)CC(C)C)[C@@H](C)CC [Example 25, (2S,3R,4S)-2-(N-Succinyl-Isoleucyl-Isoleucyl-Amino)-1-cyclohexyl-3,4-dihydroxy-6-methylheptane]
0.007 µM | CCC(C)C(NC(=O)C(CC(=O)OCc1ccccc1)NC(=O)OC(C)(C)C)C(=O)NC(C(=O)N[C@@H](CC1CCCCC1)[C@@H](O)[C@@H](O)CC(C)C)C(C)CC (stereo partly drawn) [Example 26, (2S,3R,4S)-2-(N-BOC-Aspartyl(β-O-Benzyl)-Isoleucyl-Isoleucyl -Amino)-1-cyclohexyl-3,4-dihydroxy-6-methylheptane]
0.029 µM | CC[C@H](C)[C@H](NC(C)=O)C(=O)N[C@H](C(=O)N[C@@H](CC1CCCCC1)[C@@H](O)[C@@H](O)CC(C)C)[C@@H](C)CC [Example 27, (2S,3R,4S)-2-(N-Acetyl-Isoleucyl-Isoleucyl-Amino)-1-cyclohexyl-3,4-dihydroxy-6-methylheptane]
0.009 µM | CCC(C)C(NC(=O)C(CC1CCCCC1)NC(=O)OC(C)(C)C)C(=O)N[C@@H](CC1CCCCC1)[C@@H](O)[C@@H](O)CC(C)C (stereo partly drawn) [Example 28]

SMILES | IC50
CCOC(=O)CC(O)C(CC(C)C)NC(=O)C(NC(=O)[C@@H](NC(=O)OC(C)(C)C)C(C)(C)C)C(C)CC (stereo partly drawn) [Example 1, N-{(S)-2-[(tert-Butyloxycarbonyl]amino]-3,3-dimethylbutanoyl}-Isoleucyl-Statyl Ethyl ester] | 0.05 µM
